Drawing on patent US20230295087A1, “AGONISTS OF ROR GAMMAt” (BRISTOL-MYERS SQUIBB COMPANY, priority 2019, published 2023), this text covers EC50 for 22 compounds.

The assay has as its target T1, human RORgT (Homo sapiens, UniProt P51449).
T1 construct: expressed in transfected cells
T1 sequence (P51449 267-516): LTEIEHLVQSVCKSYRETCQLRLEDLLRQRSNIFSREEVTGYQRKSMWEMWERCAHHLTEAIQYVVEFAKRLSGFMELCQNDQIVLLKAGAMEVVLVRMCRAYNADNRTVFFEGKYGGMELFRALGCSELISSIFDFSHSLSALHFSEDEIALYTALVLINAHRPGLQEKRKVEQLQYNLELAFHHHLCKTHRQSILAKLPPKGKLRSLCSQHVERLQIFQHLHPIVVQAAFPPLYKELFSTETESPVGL
As to the kind of experiment: RORgT Gal4 Luciferase Reporter Gene Assay. It is filed as cell-based. Particulars: engineered Jurkat cells overexpressing RORgT (LBD or full length) fused with Gal4 Luc reporter; 18 hours at 37° C.; luminescence. The procedure, abridged:
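Jurkat cells expressing Gal4 Luc with either RORgT LBD (aa267-516) or full-length human RORgT, 10,000 cells/well, treated with compound (40 µM to 0.67 nM final, 3-fold dilutions) for 18 h at 37° C. Steady-Glo luminescence read; inhibition of constitutive activity as % signal-window reduction relative to a control compound.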
(A reporter such as luciferase makes a cellular process visible.)

The term EC50 denotes the concentration at which the effect is half-maximal. A high value points to a need for much substance. Consider `CS(=O)(=O)C1CCN(C(=O)N2CC[C@@]3(S(=O)(=O)c4ccccc4)c4ccc(OCc5c(Cl)cccc5Cl)cc4CC[C@@H]23)C1` (stereo partly drawn) [Example 93, 1-[(3aR,9bR)-9b-(benzenesulfonyl)-7-[(2,6-dichlorophenyl)methoxy]-1H,2H,3H,3aH,4H,5H,9bH-benzo[e]indole-3-carbonyl]-3-methanesulfonylpyrrolidine], for which the response was half-maximal at 0.29 µM (EC50).

Take `CC(=O)N1CCN(C(=O)N2CC[C@@]3(S(=O)(=O)c4ccccc4)c4ccc(OCc5c(Cl)cccc5Cl)cc4CC[C@@H]23)CC1` [Example 94, 1-{4-[(3aR,9bR)-9b-(benzenesulfonyl)-7-[(2,6-dichlorophenyl)methoxy]-1H,2H,3H,3aH,4H,5H,9bH-benzo[e]indole-3-carbonyl]piperazin-1-yl}ethan-1-one]: the EC50 was found to be 0.015 µM.

`O=C(Nc1ccnnc1)N1CC[C@@]2(S(=O)(=O)c3ccccc3)c3ccc(OCc4c(Cl)cccc4Cl)cc3CC[C@@H]12` [Example 95, (3aR,9bR)-9b-(benzenesulfonyl)-7-[(2,6-dichlorophenyl)methoxy]-N-(pyridazin-4-yl)-1H,2H,3H,3aH,4H,5H,9bH-benzo[e]indole-3-carboxamide] came in with an EC50 of 0.194 µM.

`O=C(N1CC[C@@]2(S(=O)(=O)c3ccccc3)c3ccc(OCc4c(Cl)cccc4Cl)cc3CC[C@@H]12)C1(O)CCOCC1` [Example 96, 4-[(3aR,9bR)-9b-(benzenesulfonyl)-7-[(2,6-dichlorophenyl)methoxy]-1H,2H,3H,3aH,4H,5H,9bH-benzo[e]indole-3-carbonyl]oxan-4-ol] displayed an EC50 of 0.013 µM. Compared with the last compound, the EC50 is about 15-fold lower.

Compound `CN1CCCC(C(=O)N2CC[C@@]3(S(=O)(=O)c4ccccc4)c4ccc(OCc5c(Cl)cccc5Cl)cc4CC[C@@H]23)C1` (stereo partly drawn) [Example 97, 3-[(3aR,9bR)-9b-(benzenesulfonyl)-7-[(2,6-dichlorophenyl)methoxy]-1H,2H,3H,3aH,4H,5H,9bH-benzo[e]indole-3-carbonyl]-1-methylpiperidine] showed an EC50 of 0.846 µM.

On to `CS(=O)(=O)N1CC(C(=O)N2CC[C@@]3(S(=O)(=O)c4ccccc4)c4ccc(OCc5c(Cl)cccc5Cl)cc4CC[C@@H]23)C1` [Example 98, 3-[(3aR,9bR)-9b-(benzenesulfonyl)-7-[(2,6-dichlorophenyl)methoxy]-1H,2H,3H,3aH,4H,5H,9bH-benzo[e]indole-3-carbonyl]-1-methanesulfonylazetidine], for which the EC50 was 0.019 µM.

In turn, `CS(=O)(=O)n1cc(C(=O)N2CC[C@@]3(S(=O)(=O)c4ccccc4)c4ccc(OCc5c(Cl)cccc5Cl)cc4CC[C@@H]23)cn1` [Example 99, 4-[(3aR,9bR)-9b-(benzenesulfonyl)-7-[(2,6-dichlorophenyl)methoxy]-1H,2H,3H,3aH,4H,5H,9bH-benzo[e]indole-3-carbonyl]-1-methanesulfonyl-1H-pyrazole] returned an EC50 of 0.748 µM.

With `Cn1cc(C(=O)N2CC[C@@]3(S(=O)(=O)c4ccccc4)c4ccc(OCc5c(Cl)cccc5Cl)cc4CC[C@@H]23)cn1` [Example 100, 4-[(3aR,9bR)-9b-(benzenesulfonyl)-7-[(2,6-dichlorophenyl)methoxy]-1H,2H,3H,3aH,4H,5H,9bH-benzo[e]indole-3-carbonyl]-1-methyl-1H-pyrazole], the EC50 worked out at 0.317 µM.

The compound `O=C(NC1CCS(=O)(=O)C1)N1CC[C@@]2(S(=O)(=O)c3ccccc3)c3ccc(OCc4c(Cl)cccc4Cl)cc3CC[C@@H]12` (stereo partly drawn) [Example 101, (3aR,9bR)-9b-(benzenesulfonyl)-7-[(2,6-dichlorophenyl)methoxy]-N-(1,1-dioxo-1λ^6-thiolan-3-yl)-1H,2H,3H,3aH,4H,5H,9bH-benzo[e]indole-3-carboxamide] displayed an EC50 of 0.062 µM.

The compound `CC(C)S(=O)(=O)CC(=O)N1CC[C@@]2(S(=O)(=O)c3ccccc3)c3ccc(OCc4c(Cl)cccc4Cl)cc3CC[C@@H]12` [Example 102, 1-[(3aR,9bR)-9b-(benzenesulfonyl)-7-[(2,6-dichlorophenyl)methoxy]-1H,2H,3H,3aH,4H,5H,9bH-benzo[e]indol-3-yl]-2-(propane-2-sulfonyl)ethan-1-one] had an EC50 of 0.62 µM.

With `CS(=O)(=O)N1CCC(CCC(=O)N2CC[C@@]3(S(=O)(=O)c4ccccc4)c4ccc(OCc5c(Cl)cccc5Cl)cc4CC[C@@H]23)CC1` [Example 103, 1-[(3aR,9bR)-9b-(benzenesulfonyl)-7-[(2,6-dichlorophenyl)methoxy]-1H,2H,3H,3aH,4H,5H,9bH-benzo[e]indol-3-yl]-3-(1-methanesulfonylpiperidin-4-yl)propan-1-one], a half-maximal effect (EC50) was put at 0.259 µM.

As for `O=C(N1CC[C@@]2(S(=O)(=O)c3ccc(F)cc3)c3ccc(OCc4ccc(F)cc4Cl)cc3CC[C@@H]12)C1(O)CCS(=O)(=O)CC1` [Example 104, 4-[(3aR,9bR)-7-[(2-chloro-4-fluorophenyl)methoxy]-9b-(4-fluorobenzenesulfonyl)-1H,2H,3H,3aH,4H,5H,9bH-benzo[e]indole-3-carbonyl]-4-hydroxy-1λ^6-thiane-1,1-dione], the EC50 was found to be 0.0056 µM.

The compound `O=C(N1CC[C@@]2(S(=O)(=O)c3ccccc3)c3ccc(OCc4c(Cl)cccc4Cl)cc3CC[C@@H]12)C1(O)CCS(=O)(=O)CC1` [Example 105, 4-[(3aR,9bR)-9b-(benzenesulfonyl)-7-[(2,6-dichlorophenyl)methoxy]-1H,2H,3H,3aH,4H,5H,9bH-benzo[e]indole-3-carbonyl]-4-hydroxy-1λ^6-thiane-1,1-dione] registered an EC50 of 0.0079 µM.

As to `NC(=O)[C@H]1CC[C@H](C(=O)N2CC[C@@]3(S(=O)(=O)c4ccccc4)c4ccc(OCc5c(Cl)cccc5Cl)cc4CC[C@@H]23)CC1` [Example 106, (1r,4r)-4-[(3aR,9bR)-9b-(benzenesulfonyl)-7-[(2,6-dichlorophenyl)methoxy]-1H,2H,3H,3aH,4H,5H,9bH-benzo[e]indole-3-carbonyl]cyclohexane-1-carboxamide], the EC50 stood at 0.0028 µM. This EC50 lies about 2.8-fold lower than the previous one.

Take `CC(=O)N[C@H]1CC[C@H](C(=O)N2CC[C@@]3(S(=O)(=O)c4ccc(F)cc4)c4ccc(OCc5c(F)cccc5C(F)(F)F)cc4CC[C@@H]23)CC1` [Example 108, N-[(1r,4r)-4-[(3aR,9bR)-7-{[2-fluoro-6-(trifluoromethyl)phenyl]methoxy} -9b-(4-fluorobenzenesulfonyl)-1H,2H,3H,3aH,4H,5H,9bH-benzo[e]indole-3-carbonyl]cyclohexyl]acetamide]: the response was half-maximal at 0.131 µM (EC50). This EC50 is about 47-fold higher than that of the compound before.

For the compound `O=C(O)[C@H]1CC[C@H](C(=O)N2CC[C@@]3(S(=O)(=O)c4ccc(Cl)cc4)c4ccc(OCc5c(F)cccc5C(F)(F)F)cc4CC[C@@H]23)CC1` [Example 111, (1r,4r)-4-[(3aR,9bR)-9b-(4-chlorobenzenesulfonyl)-7-{[2-fluoro-6-(trifluoromethyl)phenyl]methoxy} -1H,2H,3H,3aH,4H,5H,9bH-benzo[e]indole-3-carbonyl]cyclohexane-1-carboxylic acid], the EC50 is 0.0027 µM.

As to `O=C(O)[C@H]1CC[C@](O)(C(=O)N2CC[C@@]3(S(=O)(=O)c4ccc(F)cc4)c4ccc(OCc5cc(Cl)ccc5Cl)cc4CC[C@@H]23)CC1` [Example 112, (1 s,4 s)-4-[(3aR,9bR)-7-[(2,5-dichlorophenyl)methoxy]-9b-(4-fluorobenzenesulfonyl)-1H,2H,3H,3aH,4H,5H,9bH-benzo[e]indole-3-carbonyl] -4-hydroxycyclohexane-1-carboxylic acid], a half-maximal effect (EC50) was put at 0.0036 µM. The EC50 values of the last two compounds are within 1.5-fold of each other.

Regarding `C[C@]1(C(=O)N2CC[C@@]3(S(=O)(=O)c4ccc(F)cc4)c4ccc(OCc5cc(Cl)ccc5Cl)cc4CC[C@@H]23)CC[C@H](C(=O)O)CC1` [Example 113, (1r,4r)-4-[(3aR,9bR)-7-[(2,5-dichlorophenyl)methoxy]-9b-(4-fluorobenzenesulfonyl)-1H,2H,3H,3aH,4H,5H,9bH-benzo[e]indole-3-carbonyl]-4-methylcyclohexane-1-carboxylic acid], the EC50 stood at 0.0031 µM. This EC50 and that of the compound before are within 1.5-fold of each other.

With `O=C(O)[C@H]1CC[C@H](C(=O)N2CC[C@@]3(S(=O)(=O)c4ccc(F)cc4)c4ccc(OCc5ccncc5Cl)cc4CC[C@@H]23)CC1` [Example 114, (1r,4r)-4-[(3aR,9bR)-7-[(3-chloropyridin-4-yl)methoxy]-9b-(4-fluorobenzenesulfonyl)-1H,2H,3H,3aH,4H,5H,9bH-benzo[e]indole-3-carbonyl]cyclohexane-1-carboxylic acid], the midpoint of the response, the EC50, lay at 0.053 µM. Compared with the last compound, the EC50 is about 17-fold higher.

On to `O=C(O)[C@H]1CC[C@H](C(=O)N2CC[C@@]3(S(=O)(=O)c4ccc(F)cc4)c4ccc(Oc5c(F)ccnc5F)cc4CC[C@@H]23)CC1` [Example 115, (1r,4r)-4-[(3aR,9bR)-7-[(2,4-difluoropyridin-3-yl)oxy]-9b-(4-fluorobenzenesulfonyl)-1H,2H,3H,3aH,4H,5H,9bH-benzo[e]indole-3-carbonyl]cyclohexane-1-carboxylic acid], for which the EC50 is 0.025 µM.

As for `O=C(O)[C@H]1CC[C@H](C(=O)N2CC[C@@]3(S(=O)(=O)c4ccc(F)cc4)c4ccc(Oc5cccnc5F)cc4CC[C@@H]23)CC1` [Example 116, (1r,4r)-4-[(3aR,9bR)-9b-(4-fluorobenzenesulfonyl)-7-[(2-fluoropyridin-3-yl)oxy]-1H,2H,3H,3aH,4H,5H,9bH-benzo[e]indole-3-carbonyl]cyclohexane-1-carboxylic acid], the EC50 came out at 0.051 µM. This EC50 lies about 2-fold higher than the previous one.

Take `O=C(C1CCS(=O)(=O)CC1)N1CC[C@@]2(S(=O)(=O)c3ccc(F)cc3)c3ccc(Oc4cccnc4F)cc3CC[C@@H]12` [Example 117, 4-[(3aR,9bR)-9b-(4-fluorobenzenesulfonyl)-7-[(2-fluoropyridin-3-yl)oxy]-1H,2H,3H,3aH,4H,5H,9bH-benzo[e]indole-3-carbonyl]-1λ^6-thiane-1,1-dione]: the EC50 came to 0.0071 µM.
